Common to all, as to type: biochemical
The target of assay [1] is recombinant human PI3Kδ (6-His(p110-p85α)) (Homo sapiens (Human), UniProt O00329). Kind of assay: Enzymatic activity assay for recombinant human PI3Kδ (ADP-Glo). As to conditions: 0.6 nM PI3Kδ, 20 μM ATP, 80 μM DiC8-PIP2, ADP-Glo. The essentials:
(§1)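 ADP-Glo luminescence after DiC8-PIP2 (80 μM) phosphorylation with 20 μM ATP in 50 mM Tris pH 7.4, 3 mM MgCl2, 2.1 mM DTT, 0.05% CHAPS at room temperature. Enzyme 1.2 nM PI3Kγ or 0.6 nM PI3Kδ; inhibitors pre-incubated 15 min, then 60 min reaction.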
Background: In ADP-Glo the light output rises with the ADP produced.

Assay [2] has as its target recombinant human PI3Kγ ((aa144-1102)-6His) (Homo sapiens (Human), UniProt P48736). Kind of assay: Enzymatic activity assay for recombinant human PI3Kγ (ADP-Glo). As to conditions: 1.2 nM PI3Kγ, 20 μM ATP, 80 μM DiC8-PIP2, ADP-Glo. The gist of the method:
as §1

The target in assay [3] is recombinant human PI3Kα (6-His(p110-p85α)) (Homo sapiens (Human), UniProt P42336). Kind of assay: Enzymatic activity assay for recombinant human PI3Kα (ADP-Glo). As to conditions: 1.2 nM PI3Kα, 20 μM ATP, 80 μM DiC8-PIP2, ADP-Glo. The essentials: (§2)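 ADP-Glo luminescence after DiC8-PIP2 phosphorylation at RT: 80 μM lipid substrate, 20 μM ATP, 1.2 nM enzyme (0.6 nM for δ) in Tris pH 7.4 with MgCl2, DTT, CHAPS. Compounds pre-incubated 15 min with enzyme, then 60 min reaction; DMSO ≤1%.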

Assay [4] has as its target recombinant human PI3Kβ (6-His(p110-p85α)) (Homo sapiens (Human), UniProt P42338). Kind of assay: Enzymatic activity assay for recombinant human PI3Kβ (ADP-Glo). As to conditions: 1.2 nM PI3Kβ, 20 μM ATP, 80 μM DiC8-PIP2, ADP-Glo. The essentials: as §2

recombinant human PI3Kγ ((aa144-1102)-6His), sequence (P48736 144-1102): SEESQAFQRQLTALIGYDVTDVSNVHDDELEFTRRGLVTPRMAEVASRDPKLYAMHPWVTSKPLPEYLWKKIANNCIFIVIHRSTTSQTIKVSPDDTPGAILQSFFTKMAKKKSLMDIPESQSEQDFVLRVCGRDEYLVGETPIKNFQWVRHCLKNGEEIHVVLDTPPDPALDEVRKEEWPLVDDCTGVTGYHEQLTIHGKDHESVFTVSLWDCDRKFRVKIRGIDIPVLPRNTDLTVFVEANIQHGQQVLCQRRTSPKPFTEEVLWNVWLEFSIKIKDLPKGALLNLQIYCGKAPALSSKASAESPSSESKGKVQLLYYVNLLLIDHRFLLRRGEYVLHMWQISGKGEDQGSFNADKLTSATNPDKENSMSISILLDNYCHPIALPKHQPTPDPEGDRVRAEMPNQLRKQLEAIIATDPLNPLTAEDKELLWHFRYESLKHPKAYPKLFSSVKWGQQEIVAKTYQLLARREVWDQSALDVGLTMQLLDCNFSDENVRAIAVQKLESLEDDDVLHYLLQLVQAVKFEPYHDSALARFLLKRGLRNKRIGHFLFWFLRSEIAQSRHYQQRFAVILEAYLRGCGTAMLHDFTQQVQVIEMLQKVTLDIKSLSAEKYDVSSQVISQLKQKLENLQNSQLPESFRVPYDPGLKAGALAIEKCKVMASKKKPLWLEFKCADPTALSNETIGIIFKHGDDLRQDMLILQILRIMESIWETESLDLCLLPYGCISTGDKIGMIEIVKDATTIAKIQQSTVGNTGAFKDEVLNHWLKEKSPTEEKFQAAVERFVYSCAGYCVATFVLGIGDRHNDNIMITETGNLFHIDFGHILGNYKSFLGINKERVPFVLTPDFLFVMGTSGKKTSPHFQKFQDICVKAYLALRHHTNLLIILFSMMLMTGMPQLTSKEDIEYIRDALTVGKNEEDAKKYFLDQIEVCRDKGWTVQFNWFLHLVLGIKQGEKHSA
recombinant human PI3Kα (6-His(p110-p85α)), sequence (P42336 whole entry): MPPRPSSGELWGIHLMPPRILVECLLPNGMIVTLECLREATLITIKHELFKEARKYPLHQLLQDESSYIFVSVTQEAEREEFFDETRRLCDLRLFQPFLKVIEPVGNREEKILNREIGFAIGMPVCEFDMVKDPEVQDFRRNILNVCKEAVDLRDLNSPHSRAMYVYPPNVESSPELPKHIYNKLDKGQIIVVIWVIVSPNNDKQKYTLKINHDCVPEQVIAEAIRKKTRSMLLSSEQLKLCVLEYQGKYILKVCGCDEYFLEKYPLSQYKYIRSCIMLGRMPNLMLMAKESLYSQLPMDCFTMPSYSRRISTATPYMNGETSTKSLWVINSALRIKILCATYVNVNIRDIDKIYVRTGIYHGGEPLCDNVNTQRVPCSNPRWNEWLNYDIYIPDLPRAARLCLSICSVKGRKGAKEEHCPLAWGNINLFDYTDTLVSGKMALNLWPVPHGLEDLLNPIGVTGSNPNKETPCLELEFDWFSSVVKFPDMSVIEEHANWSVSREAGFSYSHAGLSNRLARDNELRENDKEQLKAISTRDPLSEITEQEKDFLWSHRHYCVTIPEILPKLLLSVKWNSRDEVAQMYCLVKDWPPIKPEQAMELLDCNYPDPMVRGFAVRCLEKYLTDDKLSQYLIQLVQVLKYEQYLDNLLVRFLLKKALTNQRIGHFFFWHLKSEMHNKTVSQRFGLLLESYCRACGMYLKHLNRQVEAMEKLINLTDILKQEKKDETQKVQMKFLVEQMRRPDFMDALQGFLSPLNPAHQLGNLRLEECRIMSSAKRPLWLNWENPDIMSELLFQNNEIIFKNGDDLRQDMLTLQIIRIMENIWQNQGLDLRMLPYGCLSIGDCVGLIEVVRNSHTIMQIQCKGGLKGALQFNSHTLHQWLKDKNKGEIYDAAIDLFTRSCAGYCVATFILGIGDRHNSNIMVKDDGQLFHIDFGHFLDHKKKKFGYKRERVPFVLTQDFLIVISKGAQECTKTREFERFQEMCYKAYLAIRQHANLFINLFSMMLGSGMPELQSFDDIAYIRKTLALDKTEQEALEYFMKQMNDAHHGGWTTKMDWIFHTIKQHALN
recombinant human PI3Kα (6-His(p110-p85α)), sequence (P27986 whole entry partner): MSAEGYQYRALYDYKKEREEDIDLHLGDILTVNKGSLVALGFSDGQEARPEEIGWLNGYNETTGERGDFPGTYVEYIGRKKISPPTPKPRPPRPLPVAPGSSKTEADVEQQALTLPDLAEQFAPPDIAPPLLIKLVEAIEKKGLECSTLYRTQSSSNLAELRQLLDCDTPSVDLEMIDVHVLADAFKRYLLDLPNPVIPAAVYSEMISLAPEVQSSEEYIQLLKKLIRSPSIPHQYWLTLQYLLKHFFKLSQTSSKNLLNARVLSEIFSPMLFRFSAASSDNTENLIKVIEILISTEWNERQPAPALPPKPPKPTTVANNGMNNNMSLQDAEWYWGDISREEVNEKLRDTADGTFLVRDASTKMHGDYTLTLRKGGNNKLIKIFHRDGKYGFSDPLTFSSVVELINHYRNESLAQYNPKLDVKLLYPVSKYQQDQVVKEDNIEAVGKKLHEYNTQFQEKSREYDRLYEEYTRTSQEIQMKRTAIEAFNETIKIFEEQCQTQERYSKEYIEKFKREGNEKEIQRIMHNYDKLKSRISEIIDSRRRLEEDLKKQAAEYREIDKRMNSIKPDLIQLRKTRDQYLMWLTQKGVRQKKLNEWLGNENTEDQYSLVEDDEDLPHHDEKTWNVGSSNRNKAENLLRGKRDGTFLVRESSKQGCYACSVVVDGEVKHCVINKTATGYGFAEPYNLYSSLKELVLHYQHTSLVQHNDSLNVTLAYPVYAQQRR
recombinant human PI3Kβ (6-His(p110-p85α)), sequence (P42338 whole entry): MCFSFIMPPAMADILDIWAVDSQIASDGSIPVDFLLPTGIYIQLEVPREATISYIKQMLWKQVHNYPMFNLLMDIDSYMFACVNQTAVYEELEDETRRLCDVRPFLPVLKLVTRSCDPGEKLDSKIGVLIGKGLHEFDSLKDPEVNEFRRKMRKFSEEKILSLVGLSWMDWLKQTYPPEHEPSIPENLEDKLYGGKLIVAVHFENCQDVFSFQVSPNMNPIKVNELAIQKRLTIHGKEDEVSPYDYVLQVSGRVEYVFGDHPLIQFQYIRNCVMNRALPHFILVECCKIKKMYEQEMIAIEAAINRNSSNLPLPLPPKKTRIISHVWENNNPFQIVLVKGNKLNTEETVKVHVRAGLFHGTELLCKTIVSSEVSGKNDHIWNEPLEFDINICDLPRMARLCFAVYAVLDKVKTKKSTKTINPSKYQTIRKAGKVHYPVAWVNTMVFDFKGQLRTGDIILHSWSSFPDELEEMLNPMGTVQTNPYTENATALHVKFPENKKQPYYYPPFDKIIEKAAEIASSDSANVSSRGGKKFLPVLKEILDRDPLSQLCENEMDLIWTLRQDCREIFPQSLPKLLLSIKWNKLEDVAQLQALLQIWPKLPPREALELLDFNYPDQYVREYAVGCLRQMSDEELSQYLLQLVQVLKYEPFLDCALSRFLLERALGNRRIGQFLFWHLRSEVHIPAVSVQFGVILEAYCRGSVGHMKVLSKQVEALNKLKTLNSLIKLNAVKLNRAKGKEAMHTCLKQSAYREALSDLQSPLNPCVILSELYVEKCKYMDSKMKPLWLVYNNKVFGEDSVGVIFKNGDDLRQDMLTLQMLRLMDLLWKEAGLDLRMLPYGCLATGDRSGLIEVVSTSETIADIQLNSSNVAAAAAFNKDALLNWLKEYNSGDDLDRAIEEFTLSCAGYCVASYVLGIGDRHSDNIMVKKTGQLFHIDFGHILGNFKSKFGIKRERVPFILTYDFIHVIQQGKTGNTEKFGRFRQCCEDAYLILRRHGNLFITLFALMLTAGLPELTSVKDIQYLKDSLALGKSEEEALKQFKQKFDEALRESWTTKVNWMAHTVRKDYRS
recombinant human PI3Kβ (6-His(p110-p85α)), sequence (P27986 whole entry partner): as the sequence (P27986 whole entry partner) above
recombinant human PI3Kδ (6-His(p110-p85α)), sequence (O00329 whole entry): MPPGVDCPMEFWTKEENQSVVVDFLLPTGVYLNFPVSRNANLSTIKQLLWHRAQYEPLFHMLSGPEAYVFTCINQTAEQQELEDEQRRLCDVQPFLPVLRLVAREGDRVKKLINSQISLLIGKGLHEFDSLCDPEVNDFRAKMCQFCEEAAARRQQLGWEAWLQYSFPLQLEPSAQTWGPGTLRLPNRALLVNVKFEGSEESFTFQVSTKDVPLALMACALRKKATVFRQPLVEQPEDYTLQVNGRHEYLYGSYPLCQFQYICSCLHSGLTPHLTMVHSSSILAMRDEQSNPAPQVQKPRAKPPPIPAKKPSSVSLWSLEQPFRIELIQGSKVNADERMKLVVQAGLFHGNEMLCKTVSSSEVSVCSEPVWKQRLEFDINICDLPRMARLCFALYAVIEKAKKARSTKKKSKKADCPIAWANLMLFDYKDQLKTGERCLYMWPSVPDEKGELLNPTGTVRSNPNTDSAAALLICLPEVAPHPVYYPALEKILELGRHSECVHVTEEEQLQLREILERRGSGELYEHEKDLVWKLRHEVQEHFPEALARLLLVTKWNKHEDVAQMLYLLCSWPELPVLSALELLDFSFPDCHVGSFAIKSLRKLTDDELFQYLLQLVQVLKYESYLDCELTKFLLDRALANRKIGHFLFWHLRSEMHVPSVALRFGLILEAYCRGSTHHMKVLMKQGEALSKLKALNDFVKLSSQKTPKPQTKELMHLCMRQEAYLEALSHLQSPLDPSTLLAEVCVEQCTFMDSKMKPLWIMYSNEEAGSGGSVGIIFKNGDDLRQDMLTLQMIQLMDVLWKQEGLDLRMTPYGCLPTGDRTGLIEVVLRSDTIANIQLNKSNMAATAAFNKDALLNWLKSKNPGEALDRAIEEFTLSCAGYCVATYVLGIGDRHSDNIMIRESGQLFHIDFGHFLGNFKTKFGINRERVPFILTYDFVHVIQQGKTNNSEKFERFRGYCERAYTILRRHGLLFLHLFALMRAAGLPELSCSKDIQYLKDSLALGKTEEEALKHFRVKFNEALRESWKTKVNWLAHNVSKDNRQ
recombinant human PI3Kδ (6-His(p110-p85α)), sequence (P27986 whole entry partner): as the sequence (P27986 whole entry partner) above

The term IC50 denotes the concentration that inhibits the measured activity by half. In the case of `CNS(=O)(=O)c1cc(-c2sc(Nc3cccc(N4CCN[C@H](C)C4=O)n3)nc2C)cc2c1C(=O)N([C@@H](C)C1CC1)C2` [Example 43, 2-[(1S)-1-Cyclopropylethyl]-N-methyl-6-[4-methyl-2-({6-[(3R)-3-methyl-2-oxopiperazin-1-yl]pyridin-2-yl}amino)-1,3-thiazol-5-yl]-3-oxo-2,3-dihydro-1H-isoindole-4-sulfonamide], the half-maximal inhibitory concentration (IC50) in assay [1] turned out to be 1 nM; in assay [2], 1 nM; in assay [3], 40 nM; in assay [4], 284 nM.
Consider `CNS(=O)(=O)c1cc(-c2sc(Nc3cccc(N4CCN[C@@H](C)C4=O)n3)nc2C)cc2c1C(=O)N([C@@H](C)C1CC1)C2` [Example 44, 2-[(1S)-1-Cyclopropylethyl]-N-methyl-6-[4-methyl-2-({6-[(3S)-3-methyl-2-oxopiperazin-1-yl]pyridin-2-yl}amino)-1,3-thiazol-5-yl]-3-oxo-2,3-dihydro-1H-isoindole-4-sulfonamide], for which the half-maximal inhibitory concentration (IC50) worked out at 1.5 nM in assay [1], 1.2 nM in assay [2], 72 nM in assay [3] and 518 nM in assay [4].
On to `CNS(=O)(=O)c1cc(-c2sc(Nc3cccc(N4C[C@@H](C)NCC4=O)n3)nc2C)cc2c1C(=O)N([C@@H](C)C1CC1)C2` [Example 45, 2-[(1S)-1-Cyclopropylethyl]-N-methyl-6-[4-methyl-2-({6-[(5R)-5-methyl-2-oxopiperazin-1-yl]pyridin-2-yl}amino)-1,3-thiazol-5-yl]-3-oxo-2,3-dihydro-1H-isoindole-4-sulfonamide], for which the IC50 in assay [1] turned out to be 1 nM; in assay [2] it was 0.8 nM; in assay [3], 33 nM; in assay [4], 257 nM.
As to `CNS(=O)(=O)c1cc(-c2sc(Nc3cccc(N4C(=O)CNC[C@H]4C)n3)nc2C)cc2c1C(=O)N([C@@H](C)C1CC1)C2` [Example 46, 2-[(1S)-1-Cyclopropylethyl]-N-methyl-6-[4-methyl-2-({6-[(2R)-2-methyl-6-oxopiperazin-1-yl]pyridin-2-yl}amino)-1,3-thiazol-5-yl]-3-oxo-2,3-dihydro-1H-isoindole-4-sulfonamide], the half-inhibitory concentration (IC50) in assay [1] amounted to 0.8 nM; in assay [2] it was 1 nM; in assay [3] it was 24 nM; in assay [4] it was 123 nM.
On the same counts, the results for `CNS(=O)(=O)c1cc(-c2sc(Nc3cccc(N4CCNC(C)(C)C4=O)n3)nc2C)cc2c1C(=O)N([C@@H](C)C1CC1)C2` [Example 47, 2-[(1S)-1-Cyclopropylethyl]-6-(2-{[6-(3,3-dimethyl-2-oxopiperazin-1-yl)pyridin-2-yl]amino}-4-methyl-1,3-thiazol-5-yl)-N-methyl-3-oxo-2,3-dihydro-1H-isoindole-4-sulfonamide] are 4.4 nM, 1.3 nM, 97 nM and 824 nM.
Consider `CNS(=O)(=O)c1cc(-c2sc(Nc3cccc(N4CC(C)(C)NCC4=O)n3)nc2C)cc2c1C(=O)N([C@@H](C)C1CC1)C2` [Example 48, 2-[(1S)-1-Cyclopropylethyl]-6-(2-{[6-(5,5-dimethyl-2-oxopiperazin-1-yl)pyridin-2-yl]amino}-4-methyl-1,3-thiazol-5-yl)-N-methyl-3-oxo-2,3-dihydro-1H-isoindole-4-sulfonamide], for which the IC50 in assay [1] came to 0.7 nM; in assay [2], 1.5 nM; in assay [3], 19 nM; in assay [4] it was 199 nM.
On the same counts, the results for `CNS(=O)(=O)c1cc(-c2sc(Nc3cccc(N4C(=O)CNC[C@@H]4C)n3)nc2C)cc2c1C(=O)N([C@@H](C)C1CC1)C2` [Example 49, 2-[(1S)-1-Cyclopropylethyl]-N-methyl-6-[4-methyl-2-({6-[(2S)-2-methyl-6-oxopiperazin-1-yl]pyridin-2-yl}amino)-1,3-thiazol-5-yl]-3-oxo-2,3-dihydro-1H-isoindole-4-sulfonamide] are 2.6 nM, 1.9 nM, 87 nM and 800 nM.
On the same counts, the results for `CCNS(=O)(=O)c1cc(-c2sc(Nc3cccc(N4CCNCC4=O)n3)nc2C)cc2c1C(=O)N([C@@H](C)C1CC1)C2` [Example 50, 2-[(1S)-1-Cyclopropylethyl]-N-ethyl-6-(4-methyl-2-{[6-(2-oxopiperazin-1-yl)pyridin-2-yl]amino}-1,3-thiazol-5-yl)-3-oxo-2,3-dihydro-1H-isoindole-4-sulfonamide] are 0.8 nM, 1.4 nM, 54 nM and 271 nM.
Take `Cc1nc(Nc2cccc(N3CCNCC3=O)n2)sc1-c1cc2c(c(S(=O)(=O)NC(C)C)c1)C(=O)N([C@@H](C)C1CC1)C2` [Example 51, 2-[(1S)-1-Cyclopropylethyl]-6-(4-methyl-2-{[6-(2-oxopiperazin-1-yl)pyridin-2-yl]amino}-1,3-thiazol-5-yl)-3-oxo-N-(propan-2-yl)-2,3-dihydro-1H-isoindole-4-sulfonamide]: the IC50 in assay [1] is 1.1 nM; in assay [2] it was 1.5 nM; in assay [3] it was 134 nM; in assay [4], 415 nM.
With `CNS(=O)(=O)c1cc(-c2sc(Nc3cccc(N4CCNCCC4=O)n3)nc2C)cc2c1C(=O)N([C@@H](C)C1CC1)C2` [Example 53, 2-[(1S)-1-Cyclopropylethyl]-N-methyl-6-(4-methyl-2-{[6-(7-oxo-1,4-diazepan-1-yl)pyridin-2-yl]amino}-1,3-thiazol-5-yl)-3-oxo-2,3-dihydro-1H-isoindole-4-sulfonamide], the 50% inhibitory concentration (IC50) in assay [1] was found to be 0.7 nM; in assay [2] it was 1.4 nM; in assay [3], 64 nM; in assay [4] it was 264 nM.
On the same counts, the results for `CNS(=O)(=O)c1cc(-c2sc(Nc3cccc(N4CC[C@@H](O)C4=O)n3)nc2C)cc2c1C(=O)N([C@@H](C)C1CC1)C2` [Example 54, 2-[(1S)-1-Cyclopropylethyl]-6-[2-({6-[(3R)-3-hydroxy-2-oxopyrrolidin-1-yl]pyridin-2-yl}amino)-4-methyl-1,3-thiazol-5-yl]-N-methyl-3-oxo-2,3-dihydro-1H-isoindole-4-sulfonamide] are 0.5 nM, 0.9 nM, 14 nM and 325 nM.
Regarding `CNS(=O)(=O)c1cc(-c2sc(Nc3cccc(N4C[C@H](O)CC4=O)n3)nc2C)cc2c1C(=O)N([C@@H](C)C1CC1)C2` [Example 55, 2-[(1S)-1-Cyclopropylethyl]-6-[2-({6-[(4R)-4-hydroxy-2-oxopyrrolidin-1-yl]pyridin-2-yl}amino)-4-methyl-1,3-thiazol-5-yl]-N-methyl-3-oxo-2,3-dihydro-1H-isoindole-4-sulfonamide], the IC50 in assay [1] was determined as 1.1 nM; in assay [2] it was 0.9 nM; in assay [3] it was 40 nM; in assay [4], 386 nM.
On the same counts, the results for `CNS(=O)(=O)c1cc(-c2sc(Nc3cccc(N4CC[C@H](O)C4=O)n3)nc2C)cc2c1C(=O)N([C@@H](C)C1CC1)C2` [Example 56, 2-[(1S)-1-Cyclopropylethyl]-6-[2-({6-[(3S)-3-hydroxy-2-oxopyrrolidin-1-yl]pyridin-2-yl}amino)-4-methyl-1,3-thiazol-5-yl]-N-methyl-3-oxo-2,3-dihydro-1H-isoindole-4-sulfonamide] are 0.5 nM, 1 nM, 26 nM and 249 nM.
Consider `CNS(=O)(=O)c1cc(-c2sc(Nc3cccc(N4C(=O)CC[C@H]4CO)n3)nc2C)cc2c1C(=O)N([C@@H](C)C1CC1)C2` [Example 57, 2-[(1S)-1-Cyclopropylethyl]-6-[2-({6-[(2S)-2-(hydroxymethyl)-5-oxopyrrolidin-1-yl]pyridin-2-yl}amino)-4-methyl-1,3-thiazol-5-yl]-N-methyl-3-oxo-2,3-dihydro-1H-isoindole-4-sulfonamide], for which the IC50 was 0.7 nM in assay [1], 1.2 nM in assay [2], 11 nM in assay [3] and 85 nM in assay [4].
On to `CNS(=O)(=O)c1cc(-c2sc(Nc3cccc(N4C(=O)CC[C@@H]4CO)n3)nc2C)cc2c1C(=O)N([C@@H](C)C1CC1)C2` [Example 58, 2-[(1S)-1-Cyclopropylethyl]-6-[2-({6-[(2R)-2-(hydroxymethyl)-5-oxopyrrolidin-1-yl]pyridin-2-yl}amino)-4-methyl-1,3-thiazol-5-yl]-N-methyl-3-oxo-2,3-dihydro-1H-isoindole-4-sulfonamide], for which the IC50 in assay [1] is 2.9 nM; in assay [2] it was 1.2 nM; in assay [3], 43 nM; in assay [4] it was 998 nM.
On the same counts, the results for `CNS(=O)(=O)c1cc(-c2sc(Nc3cccc(N4CCN(CCO)CC4=O)n3)nc2C)cc2c1C(=O)N([C@@H](C)C1CC1)C2` [Example 59, 2-[(1S)-1-Cyclopropylethyl]-6-[2-({6-[4-(2-hydroxyethyl)-2-oxopiperazin-1-yl]pyridin-2-yl}amino)-4-methyl-1,3-thiazol-5-yl]-N-methyl-3-oxo-2,3-dihydro-1H-isoindole-4-sulfonamide] are 0.7 nM, 0.9 nM, 27 nM and 481 nM.
